Measured values: publication PMC7031696 (Cell chemical biology, 2019)

System: 3D7-MR4 trophozoite parasite-infected RBCs
Test: Metabolomic profiling (hydrophilic metabolite changes, UHPLC-MS)
Assay type: cell-based, Plasmodium falciparum

## CC(C)(C)c1ccc2c(c1)CN(Cc1ccc(Cl)cc1)CO2 [MMV000442]
10 × IC50^72h, 2.5 hr, trophozoites
  peptide levels (hemoglobin catabolism signature): decreased peptide levels
Metabolite 1_3-Bisphosphoglyceric acid, log2 fold change
  Log2(fold changes) 1_3-Bisphosphoglyceric acid: 0.0000
Metabolite 2-Hydroxy-2-methylbutanedioic acid, log2 fold change
  Log2(fold changes) 2-Hydroxy-2-methylbutanedioic acid: 0.0000
Metabolite 2-Isopropylmalic acid, log2 fold change
  Log2(fold changes) 2-Isopropylmalic acid: 0.0000
Metabolite 2-dehydro-D-gluconate, log2 fold change
  Log2(fold changes) 2-dehydro-D-gluconate: 0.0187
Metabolite 2-oxo-4-methylthiobutanoate, log2 fold change
  Log2(fold changes) 2-oxo-4-methylthiobutanoate: 0.0000
Metabolite 2_3-Diphosphoglyceric acid, log2 fold change
  Log2(fold changes) 2_3-Diphosphoglyceric acid: 0.0000
Metabolite 3-phosphoglycerate, log2 fold change
  Log2(fold changes) 3-phosphoglycerate: 0.1472
Metabolite 3-phosphoserine, log2 fold change
  Log2(fold changes) 3-phosphoserine: -0.0388
Metabolite 4-Pyridoxic acid, log2 fold change
  Log2(fold changes) 4-Pyridoxic acid: 0.3454
Metabolite 4-aminobutyrate, log2 fold change
  Log2(fold changes) 4-aminobutyrate: -0.2887
Metabolite 4-phosphopantetheine, log2 fold change
  Log2(fold changes) 4-phosphopantetheine: 0.0000
Metabolite 4-phosphopantothenate, log2 fold change
  Log2(fold changes) 4-phosphopantothenate: -0.1668
Metabolite 5-aminopentanoic acid, log2 fold change
  Log2(fold changes) 5-aminopentanoic acid: -0.5922
Metabolite 5-methyl-THF, log2 fold change
  Log2(fold changes) 5-methyl-THF: 0.0000
Metabolite 5-phosphoribosyl-1-pyrophosphate, log2 fold change
  Log2(fold changes) 5-phosphoribosyl-1-pyrophosphate: 0.0000
Metabolite 6-phospho-D-gluconate, log2 fold change
  Log2(fold changes) 6-phospho-D-gluconate: -0.0694
Metabolite ADP-D-glucose, log2 fold change
  Log2(fold changes) ADP-D-glucose: 0.0000
Metabolite Acetyl-glycine, log2 fold change
  Log2(fold changes) Acetyl-glycine: 0.0000
Metabolite Acetyllysine, log2 fold change
  Log2(fold changes) Acetyllysine: -2.4239
Metabolite Aminoadipic acid, log2 fold change
  Log2(fold changes) Aminoadipic acid: 0.6779
Metabolite CDP, log2 fold change
  Log2(fold changes) CDP: -0.1566
Metabolite CDP-choline, log2 fold change
  Log2(fold changes) CDP-choline: 0.0000
Metabolite CDP-ethanolamine, log2 fold change
  Log2(fold changes) CDP-ethanolamine: 0.0000
Metabolite CMP
  Log2(fold change) of CMP: -0.4256
Metabolite CTP
  Log2(fold change) of CTP: 0.0000
Metabolite Citraconic acid, log2 fold change
  Log2(fold changes) Citraconic acid: 0.0000
Metabolite D-glucarate
  Log2(fold change) of D-glucarate: 0.0000
Metabolite D-gluconate
  Log2(fold change) of D-gluconate: 0.0000
Metabolite D-glucosamine-1/6-phosphate
  Log2(fold change) of D-glucosamine-1/6-phosphate: 0.0000
Metabolite D-sedoheptulose-1/7-phosphate
  Log2(fold change) of D-sedoheptulose-1/7-phosphate: 0.0894
Metabolite DL-Pipecolic Acid
  Log2(fold change) of DL-Pipecolic Acid: -2.3554
Metabolite DLH
  Log2(fold change) of DLH: -3.0002
Metabolite DLS
  Log2(fold change) of DLS: 0.0000
Metabolite Decanoyl-CoA
  Log2(fold change) of Decanoyl-CoA: 0.0000
Metabolite EV
  Log2(fold change) of EV: 0.0000
Metabolite FAD
  Log2(fold change) of FAD: 0.0825
Metabolite FMN
  Log2(fold change) of FMN: 0.2444
Metabolite G3P/DHAP
  Log2(fold change) of G3P/DHAP: 0.3715
Metabolite GDP
  Log2(fold change) of GDP: -0.4064
Metabolite GMP
  Log2(fold change) GMP: -0.5023
Metabolite GTP
  Log2(fold change) GTP: 0.0000
Metabolite HVDD
  Log2(fold change) HVDD: 0.0000
Metabolite Hexose
  Log2(fold change) Hexose: 0.5242
Metabolite Hydroxyisocaproic acid
  Log2(fold change) Hydroxyisocaproic acid: 0.0000
Metabolite IDP
  Log2(fold change) IDP: 0.0000
Metabolite IMP
  Log2(fold change) IMP: -0.3808
Metabolite Inositol
  Log2(fold change) Inositol: 0.0000
Metabolite Isopentyl-PP
  Log2(fold change) Isopentyl-PP: 0.0000
Metabolite L-arginino-succinate
  Log2(fold change) L-arginino-succinate: -0.9153
Metabolite LD
  Log2(fold change) LD: 0.0782
Metabolite Myristoyl/tetradecanoyl-CoA
  Log2(fold change) Myristoyl/tetradecanoyl-CoA: 0.0000
Metabolite N-Acetyl-L-alanine
  Log2(fold change) N-Acetyl-L-alanine: -0.8745
Metabolite N-acetyl-L-ornithine
  Log2(fold change) N-acetyl-L-ornithine: -2.0207
Metabolite N-acetyl-glucosamine-1/6-phosphate
  Log2(fold change) N-acetyl-glucosamine-1/6-phosphate: 0.0000
Metabolite N-acetyl-glutamate
  Log2(fold change) N-acetyl-glutamate: 0.2896
Metabolite N-acetyl-glutamine
  Log2(fold change) N-acetyl-glutamine: -0.5645
Metabolite N-carbamoyl-L-aspartate
  Log2(fold change) N-carbamoyl-L-aspartate: -1.7487
Metabolite NAD+
  Log2(fold change) NAD+: -0.0829
Metabolite NADH
  Log2(fold change) NADH: 0.7233
Metabolite NADP+
  Log2(fold change) NADP+: 0.2722
Metabolite NADPH
  Log2(fold change) NADPH: 0.0000
Metabolite O-acetyl-L-serine
  Log2(fold change) O-acetyl-L-serine: 0.0000
Metabolite Octoluse 8/1P
  Log2(fold change) Octoluse 8/1P: 0.0000
Metabolite Octoluse Bisphosphate
  Log2(fold change) Octoluse Bisphosphate: -0.1456
Metabolite PD
  Log2(fold change) PD: -3.3951
Metabolite PE
  Log2(fold change) PE: -2.6495
Metabolite PEE
  Log2(fold change) PEE: -3.0239
Metabolite PEEK
  Log2(fold change) PEEK: -4.4264
Metabolite PVNF
  Log2(fold change) PVNF: -3.4246
Metabolite Pyroglutamic acid
  Log2(fold change) Pyroglutamic acid: -0.3004
Metabolite Pyrophosphate
  Log2(fold change) Pyrophosphate: 0.0000
Metabolite Ribose-5-phosphate
  Log2(fold change) Ribose-5-phosphate: -0.0687
Metabolite S-adenosyl-L-homocysteine
  Log2(fold change) S-adenosyl-L-homocysteine: -0.3299
Metabolite S-adenosyl-L-methioninamine
  Log2(fold change) S-adenosyl-L-methioninamine: 0.0000
Metabolite S-adenosyl-L-methionine
  Log2(fold change) S-adenosyl-L-methionine: 0.0000
Metabolite S-methyl-5'-thioadenosine
  Log2(fold change) S-methyl-5'-thioadenosine: 0.0000
Metabolite SD
  Log2(fold change) SD: 0.0000
Metabolite SDL
  Log2(fold change) SDL: 0.0000
Metabolite SID
  Log2(fold change) SID: 0.0000
Metabolite Sedoheptulose bisphosphate
  Log2(fold change) Sedoheptulose bisphosphate: -0.0816
Metabolite Thiamine pyrophosphate
  Log2(fold change) Thiamine pyrophosphate: 0.0000
Metabolite UDP-D-glucose, log2 fold change
  Log2(fold changes) UDP-D-glucose: 0.1178
Metabolite UDP-D-glucuronate, log2 fold change
  Log2(fold changes) UDP-D-glucuronate: 0.0275
Metabolite UDP-N-acetyl-glucosamine, log2 fold change
  Log2(fold changes) UDP-N-acetyl-glucosamine: -0.1255
Metabolite UDP, log2 fold change
  Log2(fold changes) UDP: -0.3330
Metabolite UMP, log2 fold change
  Log2(fold changes) UMP: -0.0965
Metabolite UTP, log2 fold change
  Log2(fold changes) UTP: 0.0000
Metabolite VD, log2 fold change
  Log2(fold changes) VD: 0.0000
Metabolite Xanthurenic acid, log2 fold change
  Log2(fold changes) Xanthurenic acid: 0.0000
Metabolite a-ketoglutarate, log2 fold change
  Log2(fold changes) a-ketoglutarate: -0.2716
Metabolite acetyl-CoA, log2 fold change
  Log2(fold changes) acetyl-CoA: 0.0000
Metabolite acetyl-aspartate, log2 fold change
  Log2(fold changes) acetyl-aspartate: -0.0302
Metabolite acetylphosphate, log2 fold change
  Log2(fold changes) acetylphosphate: 0.6335
Metabolite aconitate, log2 fold change
  Log2(fold changes) aconitate: -0.3057
Metabolite adenine, log2 fold change
  Log2(fold changes) adenine: 0.0000
Metabolite adenosine 5'-phosphosulfate, log2 fold change
  Log2(fold changes) adenosine 5'-phosphosulfate: -0.0782
